This is an account of results in article PMC11334571, “EpCAM-targeted betulinic acid analogue nanotherapy improves therapeutic efficacy and induces anti-tumorigenic immune response in colorectal cancer tumor microenvironment” (Journal of Biomedical Science, 2024).

The structures appear in SMILES notation.

The subject of series [1] is CRC tumor microenvironment. The series is described as follows: Cytokines (ELISA) and immune cells (flow cytometry) in CRC tumor microenvironment. As to conditions: CRC mice, 24 h and 48 h. The series is classed as in vivo. On the procedure: Colorectal tissues were isolated from the CRC-bearing mice before and after treatment with 2c, 2cNP, and Apt-2cNP, followed by washing with ice-cold PBS. Colons were then minced into small pieces and agitated with predigestion buffer (HBSS, 10 mM HEPES, 5 mM EDTA, 1 mM DTT, 5% FBS) for 20 min in a 37 °C incubator-shaker. The single cells suspension from the colonic tissues was prepared using a 100 µm cell strainer. The remaining tissue pieces collected from the cell strainer were then cut into finer fragments and treated with digestion solution (HBSS, 10 mM EDTA, 0.5 mg/ml collagenase D, 3 mg/ml dispase II and 5% FBS) in a 37 °C incubator-shaker for 30 min. The dissociated cells from the tissues were collected again through a 100 µm cell strainer. All the single-cell suspensions were pooled together and centrifuged using Percoll gradient. The lymphocytes were suspended in 4 ml of 40% Percoll solution and layered over 12 ml of 80% Percoll solution. Centrifugation was then carried out without a break at 1000 g for 20 min. The T cells were collected from the liquid interphase and resuspended in PBS or RPMI 1640 medium for further experiments.
To analyze cytokine levels (TNFα, IFNγ, and IL-10) and all other ELISA assays, sandwich ELISA kits were used. […] The reading was monitored using a multi-plate reader and then compared with the standard curve for actual measurement of the cytokine level. […]
Background: ELISA stands for enzyme-linked immunosorbent assay.

Another series concerns CRC cancer tissue. The experiment in a line: Gene expression by qPCR in CRC tumor tissue. The series is classed as in vivo, mice. To be noted: CRC mouse model. On the procedure:
Gene expression analysis by quantitative real-time polymerase chain reaction (qPCR) is widely used in molecular biology and genetics research. qPCR allows the detection and quantification of specific RNA transcripts, providing insights into the expression levels of genes under various conditions or in different cell types or tissues. The expression of several genes related to apoptosis, autophagy, DNA synthesis, and inflammatory pathways were analyzed after treatment with 2c, 2cNP, and Apt-2cNP to understand the molecular mechanism behind their cytotoxic effects and to determine differences between aptamer-conjugated and unconjugated nanoparticles. Total RNA from CRC cancer tissue before and after treatment was isolated after completion of treatment time using TRIzol, following the manufacturer’s protocol. The RNA was checked for quality by measuring the […] ratio and quantified in a NanoDrop instrument. Then, cDNAs were prepared using RevertAid First Strand cDNA synthesis kit (ThermoFisher) followed by amplified using SYBR Green Master Mix (BioRad) in a thermal cycler (Veriti 96-well, Applied Biosystems, Massachusetts, USA). Relative transcript abundance values obtained from the instrument were plotted in bar diagrams. A total of 12 genes (caspase 3, Bcl-2, Bcl-XL, Bax, Atg5, LC3B, Beclin, p62, NF-κB, APC, p53, and TOP2) were analyzed for each sample. Sequences of the primers used (both forward primer and reverse primer) for each gene are in Supplementary Table T2.

Series [2] in a line: Pharmacokinetic evaluation. Type of series: in vivo. To be noted: CRC-bearing mice, intravenous 25 mg/kg, plasma 2c. As for the experimental part:
Pharmacokinetic evaluation informs the time course of drug absorption, distribution, metabolism, and elimination (ADME) within the body. It is a crucial aspect of drug development and is vital in understanding how a drug behaves in vivo. 2c, 2cNP, and Apt-2cNP were injected separately into CRC-bearing mice through intravenous injection (dose: 25 mg/kg). Blood samples were withdrawn at 4 h, 8 h, 10 h, 12 h, 24 h, 48 h, 72 h, and 96 h post-injection, and plasma concentrations of 2c for all samples were determined using LC–MS following a previously described method. A plasma concentration vs time curve was generated using GraphPad Prism (version 5.0). Cmax and Tmax were determined directly from the curve. AUC, AUMC, and AUC0–∞ were calculated using the trapezoidal method. t1/2, MRT, and clearance values were calculated using standard formulas.

The subject of a further series is HT-29 cells. The series is described as follows: Colony formation assay. Type of series: cell-based, human. As to conditions: HT-29, treated every 3 days for 12–14 days. On the procedure: The colony formation assay, also known as the clonogenic assay, is a cell biology technique used to evaluate the ability of individual cells to undergo unlimited division and form colonies. This assay is commonly employed in cancer research, radiation biology, and drug screening studies to assess cells' proliferative potential and sensitivity to various treatments or conditions. A clonogenic assay was conducted here to evaluate the inhibitory effect of the free drug and nanoencapsulated therapies on the tumor-initiating capacity or colony formation potential of the colorectal cancer cells. About 500 cells were seeded for both the cell lines HT-29 and HCT116 in each well of a 12-well plate, followed by incubation overnight. The cells were treated with 2c, 2cNP, and Apt-2cNP every 3 days for a total of 12–14 days except for the control groups. After completion of drug incubation, the treated medium was withdrawn, and the cells were washed with PBS. 10% acetic acid (in methanol) was used as a fixation buffer, and colonies were stained with crystal violet solution (0.5% crystal violet in 25% methanol) and washed with PBS three times to remove excess dye. […] After imaging, the crystal violet stained colonies were dissolved in 10% acetic acid solution for 15 min under shaking conditions, and the absorbance of the supernatant was detected using a plate reader at 510 nm.

The next series relates to DMH-induced CRC. The experiment in a line: In vivo antitumor efficacy, Ki67 immunohistochemistry of colon. Also noted: species or system Swiss albino mice; dose or concentration left out as unconfirmed. As to conditions: CRC mice. On the procedure: Sprague–Dawley (SD) rats (body weight = 140–160 g) and Swiss albino mice (body weight = 20–25 g) of either sex (male:female = 1:1) were selected for the chemical-induced colorectal carcinoma model. The study plan was prepared as per the guidelines of the Committee for the Purpose of Control and Supervision of Experiments on Animals (CPCSEA), India (JU-AEC; Registration Number: 1805/GO/Re/S/15/CPCSEA) and was sanctioned by the Animal Ethics Committee (AEC), Jadavpur University, (Protocol approval. no.: AEC/PHARM/1701/3/2018). The animals were procured from the National Institute of Nutrition (Hyderabad, India) and were habituated in housing conditions of 25 °C ± 1 °C temperature, 55% ± 5% relative humidity, and normal day/night photoperiod for at least 2 weeks before conducting any experiment. For the development of CRC-bearing mice, Dimethylhydrazine (DMH) was injected intraperitoneally at a dose of 20 mg/kg body weight once a week for 12 weeks. In contrast, for generating CRC-bearing rats, DMH was administered intraperitoneally at a dose of 25 mg/kg body weight once a week for 9 weeks, as described previously.
Evaluating in vivo antitumor efficacy with histopathological observations is essential to preclinical studies in cancer research and drug development. […] Ki67-positive and -negative cells were counted in microscopic images taken after staining using QuPath-0.3.2 software.

For `C=C(C)[C@@H]1CC[C@]2(C(=O)O)CC[C@]3(C)[C@H](CC[C@@H]4[C@@]5(C)CC[C@H](OC(=O)Cn6cc(CO)nn6)C(C)(C)[C@@H]5CC[C@]43C)[C@@H]12` [2c, (3S)-3-[2-(4-hydroxymethyl-1H-1,2,3-triazol-1-yl)acetyloxy]-lup-20(29)-en-28-oic acid], the “Percentages of CD4 and CD8 T cells in TME” value in series [1] was “did not change”. The “Topoisomerase-II RNA level” value with CRC cancer tissue (24 h and 48 h after treatment) was “time-dependent decrease”. Besides, in the series on CRC cancer tissue (24 h and 48 h treatment), the “RNA expression of anti-apoptotic genes (Bcl-2 and Bcl-XL)” value is reported as “decrease”; the “RNA expression of pro-apoptotic genes (caspase 3 and Bax)” value is given as “time-dependent increase”. In addition, in the series on CRC cancer tissue (24 h or 48 h after treatment), the “RNA expression of autophagy-related genes (Atg5, LC3B, Beclin)” value is recorded as “time-dependent increase” and the p62 expression entry is on record as “decrease”. In series [2], the “AUC 0-∞” value is 0.38 ± 0.044 µg·h/mL, the AUC last was determined as 0.376 ± 0.042 µg·h/mL, the AUMC worked out at 8381 ± 1644 ng.h2/ml and the Clearance stood at 333 ± 30 mL/h. Besides, in series [2], the Cmax turned out to be 0.0235 ± 0.00055 µg/mL, the MRT was found to be 22.3 ± 1.72 h, the Tmax is recorded as 1 min and the Vd was determined as 2.88 ± 0.15 L. Further, the t1/2 in series [2] came to 6 ± 0.5 h. Also, the “Inhibition of colony formation” value with HT-29 cells is recorded as “moderate prohibition in colony formation”. For the same compound, the “Ki67-positive cells in colon” value with DMH-induced CRC amounted to 58.88 ± 1.2%.

One may read the Cmax as the maximum level reached in the sampled fluid or tissue. As a reminder, the MRT is a mean duration of stay, worked out from the concentration-time curve. For orientation: Tmax means the time from dosing to the highest level. For orientation: Vd means a proportionality between amount in the body and measured concentration, not a real space.
